Test results taken from PubChem BioAssay (NCI).
≈ marks a conversion by molar mass, not a printed value.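 Dose response: 5 concentrations. Exposure: 48 h. Format: 96-well plates. Endpoint: linear interpolation; highest concentration if not reached. At the GI50, growth is halved. At the TGI there is no net growth.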

How the values were obtained:
Experiment in all cases: NCI anticancer screen, dose series, 48 h
NCI/ADR-RES ovarian = system: NCI/ADR-RES ovarian
MDA-MB-231 breast = system: MDA-MB-231 breast
SF-268 CNS = system: SF-268 CNS
SR leukemia = system: SR leukemia
IGROV1 ovarian = system: IGROV1 ovarian
HCT-15 colon = system: HCT-15 colon
K-562 leukemia = system: K-562 leukemia
CAKI-1 renal = system: CAKI-1 renal

SMILES | TGI (NCI/ADR-RES ovarian) | TGI (MDA-MB-231 breast) | TGI (SF-268 CNS) | TGI (SR leukemia) | TGI (IGROV1 ovarian) | TGI (HCT-15 colon) | TGI (K-562 leukemia) | TGI (CAKI-1 renal) | GI50 (NCI/ADR-RES ovarian) [µg/mL] | GI50 (MDA-MB-231 breast) [µg/mL] | GI50 (SF-268 CNS) [µg/mL] | GI50 (SR leukemia) [µg/mL] | GI50 (IGROV1 ovarian) [µg/mL] | GI50 (HCT-15 colon) [µg/mL] | GI50 (K-562 leukemia) [µg/mL] | GI50 (CAKI-1 renal) [µg/mL]
S=C(Cc1ccc2c(c1)Sc1ccccc1O2)N1CCOCC1 | > 100 µM | > 100 µM | > 100 µM | > 100 µM | > 100 µM | > 100 µM | > 100 µM | > 100 µM | – | – | – | – | – | – | – | –
O=C(CCc1cc(O)cc(O)c1)NCCc1cc(OCc2ccccc2)cc(OCc2ccccc2)c1 | 55.2 µM | 39.3 µM | 43.2 µM | 27 µM | 31.4 µM | 29.8 µM | 29.7 µM | 36.8 µM | – | – | – | – | – | – | – | –
C[C@@H]1CC[C@@]2(C)C(C(=O)O)=CCCC2[C@@]1(C)CC(=O)c1ccoc1 (stereo partly specified) | > 25 µM | > 25 µM | > 25 µM | > 25 µM | > 25 µM | > 25 µM | – | > 25 µM | – | – | – | – | – | – | – | –
COC(=O)C(Cc1cn(C(C)n2cc(CC(NC(C)=O)C(=O)OC)c3ccccc32)c2ccccc12)NC(C)=O (stereo unspecified) | – | > 100 µM | > 100 µM | > 100 µM | > 100 µM | > 100 µM | – | > 100 µM | – | – | – | – | – | – | – | –
OCc1ccc2c(c1)CC1(C2)Cc2cc3c(cc2C1O)CCC3 (stereo unspecified) | 12.3 µM | 13.3 µM | > 72.7 µM | > 21.7 µM | 26.8 µM | > 44.2 µM | > 37.6 µM | 27 µM | – | – | – | – | – | – | – | –
O=C(O)c1nc2ccc(C(F)(F)F)cc2[nH]c1=O | > 100 µM | > 100 µM | > 100 µM | > 100 µM | > 100 µM | > 100 µM | > 100 µM | > 100 µM | – | – | – | – | – | – | – | –
CCOC(=O)/C=C/c1nc(C#N)c(N)o1 | – | > 100 µM | > 100 µM | > 100 µM | > 100 µM | > 100 µM | > 100 µM | > 100 µM | – | – | – | – | – | – | – | –
O=C1NN(C2=NNC3(C(=O)N2)c2ccccc2-c2ccccc23)C(c2ccccc2)=N/C1=C/c1ccc(Cl)cc1 | > 150 µg/mL | > 150 µg/mL | > 150 µg/mL | > 150 µg/mL | > 150 µg/mL | > 150 µg/mL | > 150 µg/mL | > 150 µg/mL | 53.2 (≈ 97.7 µM) | 47.9 (≈ 87.8 µM) | 61 (≈ 112 µM) | 62 (≈ 114 µM) | 60.5 (≈ 111 µM) | 54.1 (≈ 99.3 µM) | 50.4 (≈ 92.6 µM) | 74.4 (≈ 136 µM)
O=C(COc1ccc(OCC(=O)N/N=C/c2ccc(-c3ccc(Cl)cc3Cl)o2)c(Cl)c1)N/N=C/c1ccc(-c2ccc(Cl)cc2Cl)o1 | > 100 µM | > 100 µM | > 100 µM | 8.25 µM | > 100 µM | > 100 µM | 50.2 µM | > 100 µM | – | – | – | – | – | – | – | –
Cc1ccc2c(c1C)C(=O)C1(Cc3cc4c(cc3C1=O)CCC4)C2 (stereo unspecified) | > 100 µM | > 100 µM | > 100 µM | > 100 µM | > 100 µM | > 100 µM | > 100 µM | > 100 µM | – | – | – | – | – | – | – | –
CCOC(=O)c1c(N2CCCC2)[nH]c(=O)c(C(c2ccc(OC)cc2)c2c(O)c(C(=O)OCC)c(N3CCCC3)[nH]c2=O)c1O | > 100 µM | 88.1 µM | > 100 µM | > 100 µM | – | > 100 µM | > 100 µM | 71.1 µM | – | – | – | – | – | – | – | –
O=c1[nH]c(NCc2ccncc2)nc2nc[nH]c12 | > 100 µM | > 100 µM | > 100 µM | – | > 100 µM | > 100 µM | > 100 µM | > 100 µM | – | – | – | – | – | – | – | –
COC(=O)/C=C(\C)CC/C=C(\C)CCC1OC1(C)C (stereo unspecified) | 28 µM | 23.4 µM | – | 23.4 µM | 26.9 µM | 21.9 µM | 22 µM | 22.3 µM | – | – | – | – | – | – | – | –
CC1(C)CC(=O)C2=C(C1)C(c1ccccc1Cl)C1C(=O)CC(C)(C)CC1(O)O2 (stereo unspecified) | > 100 µM | > 100 µM | > 100 µM | > 100 µM | > 100 µM | > 100 µM | > 100 µM | > 100 µM | – | – | – | – | – | – | – | –
COCOc1ccc(C(=O)Oc2cccc3c2OC(C)(C)O3)c(OCOC)c1 | > 100 µM | > 100 µM | > 100 µM | – | > 100 µM | > 100 µM | > 100 µM | > 100 µM | – | – | – | – | – | – | – | –
CCCCI(O)OS(=O)(=O)c1ccc(C)cc1 | > 100 µM | > 100 µM | > 100 µM | 73.3 µM | 73.8 µM | > 100 µM | > 100 µM | > 100 µM | – | – | – | – | – | – | – | –
O=c1c(F)cn2c(=O)n1CCCCCCCn1c(=O)c(F)cn(c1=O)CCCCCCC2 | > 100 µM | > 100 µM | 13.1 µM | > 100 µM | > 100 µM | > 100 µM | > 100 µM | > 100 µM | – | – | – | – | – | – | – | –
c1ccc(C2=NC3OC2c2ccccc23)cc1 (stereo unspecified) | > 10 µM | > 10 µM | > 10 µM | > 10 µM | > 10 µM | > 10 µM | > 10 µM | > 10 µM | – | – | – | – | – | – | – | –
CN(/N=C1\C(=O)Nc2ccccc21)c1ccccc1 | – | 62.5 µM | > 100 µM | > 100 µM | > 100 µM | > 100 µM | > 100 µM | > 100 µM | – | – | – | – | – | – | – | –
Cc1nc2ccc(Cl)cc2c(-n2ccnc2)c1CCn1ccnc1 | 6.03 µM | 48.9 µM | > 100 µM | 20.5 µM | > 100 µM | > 100 µM | 89.3 µM | > 100 µM | – | – | – | – | – | – | – | –
[N-]=[N+]=CC(=O)C1CCCN1C(=O)c1ccccc1 (stereo unspecified) | > 10 µM | > 10 µM | > 10 µM | > 10 µM | > 10 µM | > 10 µM | > 10 µM | > 10 µM | – | – | – | – | – | – | – | –
O=C(c1ccco1)N(C(=O)N1CCCCC1)c1ccccc1 | > 100 µM | > 100 µM | > 100 µM | – | > 100 µM | > 100 µM | > 100 µM | > 100 µM | – | – | – | – | – | – | – | –
CCOC(=O)CSc1nc(N)c2c(-c3ccccc3)c3c(nc2n1)CCCC3 | > 100 µM | > 100 µM | > 100 µM | > 100 µM | > 100 µM | > 100 µM | > 100 µM | > 100 µM | – | – | – | – | – | – | – | –
CC(C)C(Br)CCC1=CCC(Br)(Br)C1 (stereo unspecified) | 62.1 µM | 20.7 µM | 31.2 µM | > 100 µM | 10.8 µM | – | > 100 µM | 33.7 µM | – | – | – | – | – | – | – | –
CCc1c(O)cc(=O)oc1-c1ccc(OC)c(OC)c1 | > 100 µM | > 100 µM | > 100 µM | – | > 100 µM | > 100 µM | > 100 µM | > 100 µM | – | – | – | – | – | – | – | –
